Columns and labels:
[1] = Peptide-induced leakage of liposomal contents (calcein release)
Method: The leakage of liposome contents to the external media was monitored by the release of calcein encapsulated in vesicles. The vesicle was prepared by reverse-phase evaporation in 10 mM sodium phosphate buffer, pH 7, followed by single extrusion through one 0.2 μm pore size polycarbonate filter. The non trapped calcein was removed by eluting through a size exclusion Sephadex G-25 column, with 90 mM sodium chloride, 10 mM sodium phosphate, pH 7. The leaking kinetics was monitored by follow the increase of calcein fluorescence intensity at 520 nm (excitation at 490 nm) due to release of self-quenching. The experiment was carried out on a Hitachi F-2500 Fluoresence spectrophotometer, with a slit width of […]. The initial rate was calculated from the linear part of the %leakage vs. time curve.
The mechanism of how the antibacterial peptides work is still on debate. However, it is generally believed they kill the cell by disturbing cell membranes. The experiment of peptide-induced leakage of liposomal contents is a direct way to monitor this process. Large unilammilar vesicles (LUV) of SOPS/SOPC (1:9) were used in the binding study. The leakage of encapsulated calcein was detected by its fluorescence at 515 nm. The fraction of bound lipid at different peptide concentration was calculated and overlaid in FIG. 4 as well. The lysis abilities of the two peptides are similar at low peptide concentration, and become quite different with increasing amount of peptide. […] With increase of peptide concentration, the leakage percentage increases quickly. For peptide 2, the leakage percentage jumps to 100% within the range between 0.05 μM and 0.14 μM where the corresponding fractions of lipid bound are about 10% 40%, respectively. […] The percentage of leakage increases to about 80% when the peptide concentration reaches 0.5 μM. The lysis ability stays at a plateau until the peptide concentration is pushed up to 2 μM, when about 60% of lipid molecules are bound to peptide molecules. […] The difference between the two peptides is even more obvious when looking at the leakage rate right after the addition of peptide to the vesicle solution, as shown in FIG. 3. The initial leakage rate for peptide 2 increases sharply when the peptide concentration increases from 0.14 μM to 0.19 μM. […] For peptide 1, the leakage initial rate increases in a continuous fashion, and 100% leakage is not complete until 300 s with 5.18 μM peptide.

[2] = Peptide binding to phospholipid bilayers by CD, SOPS/SOPC (1:9) vesicles; conditions: single site binding fit, 42 (peptide 1) or 52 (peptide 2) lipids per peptide
Method: The binding affinity of peptides to phospholipid bilayers was measured using CD spectra of the peptide in the presence of varying lipid vesicle concentrations. Peptides show little structure from CD spectra in water. Upon addition of lipid vesicles, the ellipiticity at 214 nm increased as a consequence of helix formation due to interactions between the peptide and lipid surface. Small unilamellar vesicles (SUV) of SOPC/SOPS were prepared by sonicating lipid large vesicles in 10 mM phosphate buffer, pH 7. CD spectra were taken before and after the addition of aliquots of vesicle to 2 mL peptide solution in 10 mM phosphate buffer, pH 7.
The dissociation constant Kd was determined from equation (1) for single site binding:
[P](R−1)−c/n−Kd+c/(nR)=0 (1)
where [P] and c are peptide and lipid molar concentrations, respectively, n is the number of lipids per peptide binding site. R is the fraction of peptide bound, which can be calculated from equation (2): […]
To get better understanding of the binding mechanism of the peptides to lipid membranes, the dissociation constants (Kd) of peptide 1 and peptide 2 to small unilamellar lipid vesicles (SUV) were measured. Since binding to DPC micelle drives peptide 1 and peptide 2 from random coil conformation to helical conformation, the binding equilibrium can be monitored by CD spectroscopy. […]

| SMILES | time to 100% leakage ([1]; 5.18 μM peptide) | lysis of the vesicle ([1]; at 285 seconds, 5 μM peptide) | percentage of leakage ([1]; at 285 seconds, peptide 0.5 μM) | Kd [2] | percentage of leakage ([1]; at 285 seconds, peptide between 0.05 μM and 0.14 μM) | time to complete lysis of the vesicle ([1]; peptide concentration higher than 0.5 μM) |
| --- | --- | --- | --- | --- | --- | --- |
| CC(C)[C@@H](CC(N)=O)NC(=O)C[C@H](CCCCN)NC(=O)C[C@H](C)NC(=O)C[C@@H](NC(=O)C[C@H](CCCCN)NC(=O)C[C@H](C)NC(=O)C[C@@H](NC(=O)C[C@H](CCCCN)NC(=O)C[C@H](C)NC(=O)C[C@@H](NC(=O)C[C@H](CCCCN)NC(=O)C[C@H](C)N)C(C)C)C(C)C)C(C)C [Peptide 1] | 300 s | Complete lysis | about 80% | 1.4 µM | – | – |
| CC(C)[C@@H](CC(N)=O)NC(=O)C[C@H](CCCCN)NC(=O)C[C@H](C)NC(=O)C[C@@H](NC(=O)C[C@H](CCCCN)NC(=O)C[C@H](C)NC(=O)C[C@@H](NC(=O)C[C@H](CCCCN)NC(=O)C[C@H](C)NC(=O)C[C@@H](NC(=O)C[C@H](CCCCN)NC(=O)C[C@H](C)NC(=O)C[C@@H](NC(=O)C[C@H](CCCCN)NC(=O)C[C@H](C)N)C(C)C)C(C)C)C(C)C)C(C)C [Peptide 2] | – | – | – | 0.3 µM | 100% | ≤ 20 s |

Source: patent US6677431B2, “Design, preparation, and properties of antibacterial β-peptides” (The Trustees of the University of Pennsylvania, priority 1999, dated 2004)
